Measurements: patent US20160250213A1, “FORMULATIONS OF AZAINDOLE COMPOUNDS” (priority 2013, published 2016)
Like-named read-outs stand apart in the source and are kept apart here. Marks after values point to notes of the source that are not given here.

Assays:
A/FM/1/47 (H1N1) = assay: microbe, parasite or virus in culture; type: cell-based; settings: Influenza A virus, MDCK, read-out: Cell Protection Assay EC50 ± SD
[1] = test system: Influenza A/Victoria/3/75 (H3N2) virus; type: in vivo, BALB/c mice
[2] = 900 mg Day 1, 600 mg qd Days 2-5, N = 19
[3] = 1200 mg Day 1, 600 mg qd Days 2-5, N = 18
[4] = pooled Compound (1) groups, N = 72
[5] = 1 mg/kg p.o. twice a day for 10 days starting 2 hours prior to virus exposure
[6] = 3 mg/kg p.o. twice a day for 10 days starting 2 hours prior to virus exposure
[7] = 10 mg/kg p.o. twice a day for 10 days starting 2 hours prior to virus exposure

Compound: O=C(O)[C@H]1C2CCC(CC2)C1Nc1nc(-c2c[nH]c3ncc(F)cc23)ncc1F (some centres unmarked) [Compound (1)]
- Adverse event: Nausea (400 mg, N = 19): 2 (10.5) n(%)
- Adverse event: Oropharylngeal pain (400 mg, N = 19): 0 n(%)
- Adverse event: Rhinorrhea (400 mg, N = 19): 2 (10.5) n(%)
- Adverse event: Spirometry abnormal (400 mg, N = 19): 4 (21.1) n(%)
- Adverse event: Tension Headache (400 mg, N = 19): 2 (10.5) n(%)
- Adverse event: Alanine aminotransferase increased [2]: 0 n(%)
- Adverse event: Aspartate aminotransferase increased [2]: 0 n(%)
- Adverse event: Blood phosphorus decreased [2]: 6 (31.6) n(%)
- Adverse event: Dermatitis contact [2]: 0 n(%)
- Adverse event: Headache [2]: 0 n(%)
- Adverse event: Influenza-like illness [2]: 9 (47.4) n(%)
- Adverse event: Malaise [2]: 0 n(%)
- Adverse event: Nasal congestion [2]: 0 n(%)
- Adverse event: Nausea [2]: 1 (5.3) n(%)
- Adverse event: Oropharylngeal pain [2]: 1 (5.3) n(%)
- Adverse event: Rhinorrhea [2]: 0 n(%)
- Adverse event: Spirometry abnormal [2]: 0 n(%)
- Adverse event: Tension Headache [2]: 1 (5.3) n(%)
- Adverse event: Alanine aminotransferase increased [3]: 6 (33.3) n(%)
- Adverse event: Aspartate aminotransferase increased [3]: 2 (11.1) n(%)
- Adverse event: Blood phosphorus decreased [3]: 4 (22.2) n(%)
- Adverse event: Dermatitis contact [3]: 0 n(%)
- Adverse event: Headache [3]: 2 (11.1) n(%)
- Adverse event: Influenza-like illness [3]: 7 (38.9) n(%)
- Adverse event: Malaise [3]: 0 n(%)
- Adverse event: Nasal congestion [3]: 1 (5.6) n(%)
- Adverse event: Nausea [3]: 0 n(%)
- Adverse event: Oropharylngeal pain [3]: 0 n(%)
- Adverse event: Rhinorrhea [3]: 1 (5.6) n(%)
- Adverse event: Spirometry abnormal [3]: 4 (22.2) n(%)
- Adverse event: Tension Headache [3]: 0 n(%)
- incidence of decreased blood phosphorus level (Compound (1) groups): 18.1%
- incidence of nasal congestion (Compound (1) groups): 1.4%
- incidence of rhinorrhea (Compound (1) groups): 4.2%
- Adverse event: Alanine aminotransferase increased [4]: 10 (13.9) n(%)
- Adverse event: Aspartate aminotransferase increased [4]: 4 (5.6) n(%)
- Adverse event: Blood phosphorus decreased [4]: 13 (18.1) n(%)
- Adverse event: Dermatitis contact [4]: 3 (4.2) n(%)
- Adverse event: Headache [4]: 7 (9.7) n(%)
- Adverse event: Influenza-like illness [4]: 34 (47.2) n(%)
- Adverse event: Malaise [4]: 2 (2.8) n(%)
- Adverse event: Nasal congestion [4]: 1 (1.4) n(%)
- Adverse event: Nausea [4]: 3 (4.2) n(%)
- Adverse event: Oropharylngeal pain [4]: 3 (4.2) n(%)
- Adverse event: Rhinorrhea [4]: 3 (4.2) n(%)
- Adverse event: Spirometry abnormal [4]: 10 (13.9) n(%)
- Adverse event: Tension Headache [4]: 3 (4.2) n(%)
- EC50 (A/FM/1/47 (H1N1)): 0.57 ± 0.036 nM
- MDD ± SD (mean day of death of mice that died on or before day 21) [1, 5]: 9.8 ± 1.9
- Mean Lung Parameters (Day 6): Score (hemorrhage, 0 to 4) [1, 5]: 3.2 ± 0.3^e
- Mean Lung Parameters (Day 6): Virus Titer [1, 5]: 7.3 ± 0.3 Log10 CCID50/g
- Mean Lung Parameters (Day 6): Weight [1, 5]: 274 ± 49 mg
- Survivors/Total [1, 5]: 4/10
- Mean Lung Parameters (Day 6): Score (hemorrhage, 0 to 4) [1, 6]: 3.3 ± 0.6^e
- Mean Lung Parameters (Day 6): Virus Titer [1, 6]: 7.2 ± 0.2 Log10 CCID50/g
- Mean Lung Parameters (Day 6): Weight [1, 6]: 260 ± 25 mg
- Mean Lung Parameters (Day 6): Score (hemorrhage, 0 to 4) [1, 7]: 0.1 ± 0.2^d
- Mean Lung Parameters (Day 6): Virus Titer [1, 7]: 6.1 ± 0.5 Log10 CCID50/g
- Mean Lung Parameters (Day 6): Weight [1, 7]: 164 ± 11 mg
